According to ChEMBL document CHEMBL1201862, “PubChem BioAssay data set” (2004):
Activity calls are given as the source filed them.

Legend:
[1] = target: T1, Oxysterols receptor LXR-beta (Homo sapiens, UniProt P55055); format: functional, cell-based
cells [2] = assay: cells
[3] = target: T2, Lysine-specific demethylase 4C (Homo sapiens, UniProt Q9H3R0); assay: GASC-1 (JMJD2C) histone demethylase inhibitors, dose response, biochemical, DELFIA europium, cherry-picked samples (AID 488835); format: functional
T2 sequence (Q9H3R0 whole entry): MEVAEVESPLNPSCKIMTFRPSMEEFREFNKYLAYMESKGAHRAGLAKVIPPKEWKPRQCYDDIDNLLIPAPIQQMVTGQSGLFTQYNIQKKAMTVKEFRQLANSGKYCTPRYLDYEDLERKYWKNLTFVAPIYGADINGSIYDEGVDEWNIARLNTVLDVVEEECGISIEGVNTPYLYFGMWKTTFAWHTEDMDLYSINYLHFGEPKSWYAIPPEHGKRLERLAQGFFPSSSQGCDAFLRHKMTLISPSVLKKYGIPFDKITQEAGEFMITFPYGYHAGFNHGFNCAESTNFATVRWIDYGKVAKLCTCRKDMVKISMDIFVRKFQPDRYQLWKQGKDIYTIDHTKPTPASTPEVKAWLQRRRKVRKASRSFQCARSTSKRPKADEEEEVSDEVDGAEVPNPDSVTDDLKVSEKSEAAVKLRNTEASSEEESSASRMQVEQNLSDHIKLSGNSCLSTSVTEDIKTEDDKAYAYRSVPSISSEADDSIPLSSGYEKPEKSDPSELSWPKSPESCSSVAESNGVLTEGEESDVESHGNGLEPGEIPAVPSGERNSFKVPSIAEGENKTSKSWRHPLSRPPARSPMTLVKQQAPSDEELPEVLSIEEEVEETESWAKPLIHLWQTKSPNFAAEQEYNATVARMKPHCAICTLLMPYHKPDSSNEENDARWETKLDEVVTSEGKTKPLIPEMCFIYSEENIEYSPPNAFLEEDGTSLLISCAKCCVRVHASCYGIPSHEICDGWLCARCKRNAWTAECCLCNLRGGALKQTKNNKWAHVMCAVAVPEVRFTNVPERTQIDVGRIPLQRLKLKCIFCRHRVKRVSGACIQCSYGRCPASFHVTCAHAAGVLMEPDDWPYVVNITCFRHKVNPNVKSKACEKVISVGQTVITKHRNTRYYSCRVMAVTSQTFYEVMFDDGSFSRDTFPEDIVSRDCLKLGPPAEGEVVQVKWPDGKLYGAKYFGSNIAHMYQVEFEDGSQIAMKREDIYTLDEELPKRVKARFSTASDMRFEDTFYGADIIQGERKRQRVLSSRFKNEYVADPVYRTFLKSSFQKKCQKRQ

Mu-type opioid receptor = Mu-type opioid receptor (Homo sapiens, UniProt P35372); format: functional, cell-based;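 further: U2OS cells with beta-arrestin recruitment to OPRM1 by beta-gal complementation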
[4] = target: 5-hydroxytryptamine receptor 2A (Mus musculus, UniProt P35363); format: functional, cell-based;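 further: CHO-K1 cells with tagged receptor and beta-arrestin; agonist potency measured as compound-induced activation of the receptor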
[5] = target: T3, DNA repair protein RAD52 homolog (Homo sapiens, UniProt P43351); format: functional, biochemical
T3 sequence (P43351 whole entry): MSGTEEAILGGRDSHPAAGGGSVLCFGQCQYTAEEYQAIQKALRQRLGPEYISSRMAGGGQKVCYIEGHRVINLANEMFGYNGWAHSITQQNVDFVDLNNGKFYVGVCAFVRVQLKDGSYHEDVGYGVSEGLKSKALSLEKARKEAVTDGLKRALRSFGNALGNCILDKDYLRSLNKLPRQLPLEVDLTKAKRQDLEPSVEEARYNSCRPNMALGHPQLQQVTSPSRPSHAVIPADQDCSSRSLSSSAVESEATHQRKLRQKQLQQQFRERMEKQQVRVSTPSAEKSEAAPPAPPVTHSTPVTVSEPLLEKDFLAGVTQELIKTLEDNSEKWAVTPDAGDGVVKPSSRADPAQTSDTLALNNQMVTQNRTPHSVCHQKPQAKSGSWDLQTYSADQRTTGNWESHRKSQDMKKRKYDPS

Major prion protein = Major prion protein (Homo sapiens, UniProt P04156); format: functional, cell-based
cells [6] = assay: cells; remark: listed apart in the source
[7] = target: T1, Oxysterols receptor LXR-beta; format: functional, cell-based; remark: listed apart in the source
[8] = target: T4, NAD-dependent protein deacylase sirtuin-5, mitochondrial (Homo sapiens, UniProt Q9NXA8); assay: SIRT5 deacylase inhibitors, dose response, biochemical, fluorescence imaging, cherry-pick, set 6 (AID 720597)
Protein Wnt-3a = Protein Wnt-3a (Mus musculus, UniProt P27467); assay: SAR analysis of small molecule antagonists of Gli-SUFU in a Wnt3a luminescent reporter assay.; format: functional
HEK293 = assay: HEK293T cell cytotoxicity, dose response, cytotoxicity control, ATP luminescence, cherry-pick samples (AID 687005); format: functional, cell-based; conditions: Homo sapiens;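 further: cells exposed to compound for 48 hours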
[9] = HEK293 Cytotoxicity Assay Measured in Cell-Based System Using Plate Reader - 7071-01_Inhibitor_Dose_CherryPick_Activity_Set2.; format: functional
[10] = target: T5, Short transient receptor potential channel 4 (Mus musculus, UniProt Q9QUQ5); assay: mouse TRPC4 channel inhibitors, dose response, cell-based, HEK293 TRPC4/mu-opioid, Fluo-4 calcium (AID 434942); format: functional;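 further: potency of inhibitors blocking the TRPC4 calcium response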
T5 sequence (Q9QUQ5 whole entry): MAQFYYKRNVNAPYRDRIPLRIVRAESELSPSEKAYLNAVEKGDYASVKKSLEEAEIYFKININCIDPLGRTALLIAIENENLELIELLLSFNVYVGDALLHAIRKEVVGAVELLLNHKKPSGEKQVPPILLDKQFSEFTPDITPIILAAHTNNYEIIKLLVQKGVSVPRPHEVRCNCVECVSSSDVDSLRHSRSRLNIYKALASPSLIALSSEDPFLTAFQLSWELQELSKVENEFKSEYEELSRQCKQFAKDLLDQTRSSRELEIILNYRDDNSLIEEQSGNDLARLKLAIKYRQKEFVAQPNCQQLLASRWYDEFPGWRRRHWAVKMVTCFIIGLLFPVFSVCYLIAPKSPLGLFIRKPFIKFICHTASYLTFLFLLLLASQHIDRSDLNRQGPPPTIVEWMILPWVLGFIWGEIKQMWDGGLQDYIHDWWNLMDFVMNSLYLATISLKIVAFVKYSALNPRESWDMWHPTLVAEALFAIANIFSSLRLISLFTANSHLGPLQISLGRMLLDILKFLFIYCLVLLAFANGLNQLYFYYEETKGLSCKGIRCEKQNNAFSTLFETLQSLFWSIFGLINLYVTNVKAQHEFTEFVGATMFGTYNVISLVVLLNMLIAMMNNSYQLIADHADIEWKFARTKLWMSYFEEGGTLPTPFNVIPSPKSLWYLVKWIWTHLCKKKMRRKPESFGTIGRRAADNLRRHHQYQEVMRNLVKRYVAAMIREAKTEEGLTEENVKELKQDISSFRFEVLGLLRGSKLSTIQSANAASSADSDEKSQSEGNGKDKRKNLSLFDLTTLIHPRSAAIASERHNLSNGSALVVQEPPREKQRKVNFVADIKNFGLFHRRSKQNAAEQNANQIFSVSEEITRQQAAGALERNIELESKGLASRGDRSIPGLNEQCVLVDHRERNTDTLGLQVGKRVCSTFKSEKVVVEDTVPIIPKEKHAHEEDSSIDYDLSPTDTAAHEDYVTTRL

[11] = HepG2 cell cytotoxicity, dose response, cytotoxicity control, ATP luminescence, cherry-pick, activator set 2 (AID 1053143); format: functional, cell-based
[12] = A Cell-Based Confirmatory Screen for Compounds that Inhibit VEEV, TC-83 (3).; format: functional
[13] = Vero 76 cell cytotoxicity, dose response, cytotoxicity control, set 3 (AID 602439); format: functional; conditions: Venezuelan equine encephalitis virus
[14] = A549 cell cytotoxicity, dose response, cytotoxicity control, plate reader, cherry-pick, antagonist series (AID 743412); format: functional, cell-based
[15] = LGR2 antagonists, dose response, cell-based, HEK293, CRE-luciferase reporter, cherry pick (AID 743342); format: functional
[16] = CTGF mRNA reduction under YAP1 overexpression, dose response, mechanism study for YAP1 pathway inhibitor project, DLD1 cells, RT-qPCR, cherry-pick (AID 1053127); format: functional, cell-based; conditions: DLD-1
[17] = YAP1 pathway inhibition via CTGF transcript levels, dose response, cell-based, DLD1 colon cancer, RT-qPCR, cherry-pick (AID 1053122); format: functional; conditions: Cancer cell lines
[18] = T. cruzi growth inhibition in host cells, dose response, cell-based, plate reader, dry powder, set 2 (AID 652275); format: functional
[19] = T. cruzi intracellular amastigote growth inhibition, dose response, imaging, CA-I/72 strain, bovine embryo skeletal muscle, dry powder (AID 651885); format: functional, cell-based
HeLa = assay: HeLa cell cytotoxicity, dose response, cytotoxicity control, ATP luminescence, cherry-pick samples (AID 687004); format: functional, cell-based; conditions: Homo sapiens
[20] = target: T6, Disintegrin and metalloproteinase domain-containing protein 17 (Homo sapiens, UniProt P78536); assay: exosite inhibitors of ADAM17, dose response, biochemical (AID 743260)
[21] = ADAM10 inhibitors, peptide cleavage, dose response, biochemical, QFRET (AID 743254);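 further: ADAM10 enzyme with the DM2 quenched FRET peptide as substrate; EDANS fluorescence gain as the protease cuts the substrate; inhibitor potency against ADAM10 proteolytic activity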
[22] = target: T6, Disintegrin and metalloproteinase domain-containing protein 17; assay: ADAM17 protease inhibitors, dose response, counter-screen for ADAM10 exosite inhibitor project, biochemical, quenched FRET substrate (AID 743253)
Fatty acid synthase = Fatty acid synthase (Homo sapiens, UniProt P49327); assay: FAS thioesterase domain inhibitors, SAR follow-up, biochemical, endpoint fluorescence intensity, powder samples (AID 652164); format: functional
[23] = target: T4, NAD-dependent protein deacylase sirtuin-5, mitochondrial; assay: SIRT5 desuccinylase inhibitors, dose response, biochemical, fluorescence imaging, cherry-pick, set 5 (AID 720591);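 further: desuccinylation of succinyl peptide AMC substrate read as fluorescence after trypsin release; potency of inhibitors that lower fluorescence and may act on trypsin instead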
Beta-galactosidase = Beta-galactosidase (Escherichia coli, UniProt Q8VNN2); assay: Dose response counterscreen for EBI2 assay utilizing the enzyme, b-galactosidase.; format: functional
[24] = HEK293 cell cytotoxicity, dose response, cytotoxicity control, cherry-picks, set 5 (AID 1053117); format: functional, cell-based
[25] = inhibitors of fibronectin matrix deposition, dose response, AH1F cells, Alexa488-FN fluorescence, cherry-picks (AID 1035475); format: functional, cell-based
[26] = inhibitors of non-replicating M. tuberculosis, dose response, luciferase, dry powder (AID 651619); format: functional; conditions: Mycobacterium tuberculosis
[27] = inhibitors of non-replicating M. tuberculosis, dose response, luciferase, dry powder (AID 651620); format: functional; conditions: Mycobacterium tuberculosis

Fc1cccc(F)c1/C=N/Nc1ccccn1
EC50 [1]: > 67.5 µM (inactive)
EC50 (cells [2]): > 67.5 µM (inactive)

NCC(O)c1cc(O)c(O)cc1F (centres undefined)
AC50 [3]: 11.2 µM (active)
EC50 (Mu-type opioid receptor): 92.6 µM (inactive)
EC50 [4]: 0.724 µM (active)
AC50 [5]: 6.44 µM (active)

O=C(C1=C(O)C(=O)N(CCN2CCOCC2)C1c1cccc(F)c1)c1cc2ccccc2o1 (centres undefined)
IC50 (Major prion protein): 6.77 µM (active)
IC50 (cells [6]): > 138 µM (inactive)

Nc1c(OS(=O)(=O)c2ccccc2)cccc1OS(=O)(=O)c1ccccc1
EC50 [7]: > 67.5 µM (inactive)

CCC(=O)N1CC[C@@H]2[C@@H](CO)Nc3ccc(C#Cc4cccnc4)cc3[C@@H]21
AC50 [8]: > 30 µM (inactive)

O=C(Nc1cc(N2CCCC2)ncn1)c1cccc(F)c1
IC50 (Protein Wnt-3a): > 21.8 µM (inactive)

Cc1ccc(S(=O)(=O)N2CC[C@@H]3[C@H]2c2cc(-c4ccccc4F)ccc2N[C@@H]3CO)cc1
AC50 (HEK293): > 47 µM (inactive)
AC50 [9]: > 47 µM (inactive)

Cc1nc2ccccc2n1CC(O)COc1ccccc1Cl (centres undefined)
EC50 [10]: 3.35 µM (active)
AC50 [11]: > 52 µM (inactive)

Cc1cc(Cc2cc(C)cc(C(C)(C)C)c2O)c(O)c(Cc2cc(C)cc(C(C)(C)C)c2O)c1
IC50 [12]: > 25 µM (active)
CC50 [13]: 43.1 µM (active)

C[C@H](CO)N1C[C@H](C)[C@H](CN(C)C(=O)Nc2ccccc2)OCCCC[C@H](C)Oc2ccc(NC(=O)CCC(F)(F)F)cc2C1=O
AC50 [14]: > 52 µM (inactive)
AC50 [15]: 13.9 µM (active)

O=C(Cc1ccncc1)N1CCCCN2[C@H](CO)[C@H](c3ccc(C#Cc4ccccc4F)cc3)[C@@H]2C1
AC50 [16]: 7.5 µM (active)
AC50 [17]: 5.41 µM (active)

CC(C)N1C[C@H](C)[C@@H](CN(C)Cc2ccc(Cl)cc2)Oc2c(NC(=O)c3ccncc3)cccc2C1=O
AC50 [18]: 0.000541 µM (active)
IC50 [19]: 0.00107 µM (active)

O=C(CN1CCOCC1)N1CC[C@@H]2[C@@H](CO)Nc3ccc(-c4ccccc4F)cc3[C@@H]21
AC50 (HeLa): < 0.195 µM (active)

COc1cccc(C2C(C#N)=C(N)Oc3c2oc(CO)cc3=O)c1 (centres undefined)
IC50 [20]: > 69.5 µM (inactive)

O=C(Nc1ccc2c(c1)OCCO2)C(c1ccnc2ccccc12)N1CCC(Cc2ccccc2)CC1 (centres undefined)
IC50 [21]: > 69.5 µM (inactive)
IC50 [22]: > 69.5 µM (inactive)

CC1CCN(S(=O)(=O)c2ccc(-c3csc(NC(=O)C4CC4)n3)cc2)CC1
IC50 (Fatty acid synthase): > 80 µM (inactive)

O=C(CCC(=O)OCc1ccc(Br)cc1)Nc1ccccc1
AC50 [23]: > 30 µM (inactive)

CS(=O)(=O)N(CC(=O)NCCSc1ccc(Cl)cc1)c1ccc2c(c1)OCO2
IC50 (Beta-galactosidase): > 80 µM (inactive)

COc1cccc(-c2ccc3c(c2)[C@@H]2[C@@H](CCN2S(=O)(=O)c2cccc(OC)c2)[C@H](CO)N3)c1
AC50 [24]: 30.5 µM (active)
AC50 [25]: 57.8 µM (active)

CSc1nnc(-c2ccccc2)o1
IC90 [26]: 125 µM (active)
IC90 [27]: 125 µM (active)
